Legend:
Type in all cases: in vivo
[1] = test system: Soybeans (Pioneer 93-M-11, Crow C300 42); test: Soybean field trials, Dinuba 2008 (Example 4)
Protocol: Soybeans were grown in 2008 in two field trials at the BASF experimental station in Dinuba, 10181 Avenue 416, Calif., U.S.A. In one trial, the variety Pioneer 93-M-11 was planted at a seeding rate of 88 kg/ha. In a second trial, the variety Crow C300 42 was planted at the same seeding rate. Both trials were setup as randomized complete block design with 5 replications, each. Plot size was 42 m^2. Compound la was used as an EC formulation (62.5 g a.i./L) with a dose rate of 0.64 L per hectar (40 g a.i./ha). The formulation was applied in a total spray volume of 300 L/ha. Compound Ia was sprayed at growth stage 34/37 (BBCH) with a tractor mounted spray boom with VS11003 spray nozzles at 3 bar spray pressure.
(§1) No disease symptoms were visible at the application time and no symptoms were detected at later stages.
Green leaf area, as an indicator of plant vigor, was assessed in the second trial (variety Crow C300 42) when all pods had reached their final size by estimating the green leaf area in 10 randomly chosen plants per plot. At maturity the grain was harvested and the grain yield per plot, as an indicator of plant yield, was determined (kg/plot). Finally, the grain yield per hectare was calculated (dt/ha). Thousand Grain Weight (TGW) was determined in the second trial (Crow C300 42).

[2] = test system: Maize (Pioneer 34-N-45); test: Maize field trial, mixture with epoxiconazol, Colby synergism (Example 6); settings: 50 g a.i./ha of each compound
Protocol: Maize was grown in 2008 in a field trial at the BASF experimental station in Dinuba, 10181 Avenue 416, Calif., U.S.A. The variety Pioneer 34-N-45 was planted at a seeding rate of 35.000 plants/ha. The trial was setup as a randomized bloc design with 5 replications, each. Plot size was 43 m^2.
The maize plants were either untreted, treated with epoxiconazol (A3), with compound Ia, and with a mixture comprising compound Ia and epoxiconazol. Epoxiconazol was applied as the commercial formulation OPUS™ (125 g a.i./L, SC formulation) at a dose rate of 0.4 L/ha (50 g a.i./ha). Compound Ia was used as an EC formulation (62.5 g a.i./L) with a dose rate of 0.8 L per hectar (50 g a.i./ha). Epoxiconazol was applied together with compound Ia (as a mixture) using a co-formulation of both compounds (EC formulation, 62.5 g a.i./L each) with a product rate of 0.8 L/ha. The formulation was applied in a total spray volume of 300 L/ha. Compound Ia was sprayed at growth stage 51/55 (BBCH) with a tractor mounted spray boom with VS11003 spray nozzles at 3 bar spray pressure.
as §1
At maturity the grain was harvested and the grain yield per plot, as an indicator of plant yield, was determined (kg/plot). Finally, the grain yield per hectare was calculated (dt/ha).
The efficacy was calculated as % increase of the grain yield (dt/ha) by each treatment compared to the untreated control.
The expected efficacies of the combinations of the active compounds were estimated using Colby's formula (Colby, S. R., Calculating synergistic and antagonistic responses of herbicide combinations, Weeds, 15, pp. 20-22, 1967) and compared with the observed efficacies.
E=x+y−x·y/100 Colby's formula: • E expected efficacy, expressed in % of the untreated control, when using the mixture of the active compounds A and B at the concentrations a and b • x efficacy, expressed in % of the untreated control, when using the active ingredient A at the concentration a • y efficacy, expressed in % of the untreated control, when using the active ingredient B at the concentration b

[3] = test system: Soybeans (M-SOY 6001 RR); test: Soybean field trial Brazil, ternary mixture, Colby synergism (Example 7); settings: soybean M-SOY 6001 RR, Ia 40, epoxiconazol 40, pyraclostrobin 65 g a.i./ha
Protocol: Soybeans were grown in 2008 at the CEDUP “Caetano Vieira da Costa” in Sao José do Cerrito, Santa […], Brazil. The variety M-SOY 6001 RR was planted in 2007, 11 Nov., at a seeding rate of 300.000 plants per ha. Row spacing was 50 cm. The trial was setup as a randomized bloc design with 4 replications. Plot size was 12.5 m^2. Fungicide treatments were applied at BBCH GS 70-79 (pods reached 15-20 mm of final […]). The fungicides were used as formulations. Compound Ia was applied as an EC formulation (62.5 g/L-EC) at 0.64 L/ha (40 g ai/ha). […] The adjuvant DASH HC was added to the spray tank with 0.3% (v/v). Finally, compound Ia was applied in a mixture together with epoxiconazol and pyraclostrobin forming a ternary mixture according to the present invention, using a coformulation of all three compounds (50 g/L of compound Ia+50 g/L of epoxiconazol+81 g/L of pyraclostrobin-EC). This formulation was sprayed at a rate of 0.8 […] compound […] epoxiconazol+65 g a.i./ha pyraclostrobin). The formulations were diluted in water. Total spray volume for foliar application was 150 L/ha. The trial was conducted under low disease pressure. […] Plots were harvested at maturity of the soybean crop and the yield (thousand grain weight) was determined (table 11). The efficacy in yield increase was calculated as % increase of the Thousand Grain Weight (TGW) by the treatments compared to the untreated control. […]

[4] = 40 g a.i./ha, listed as compound Ia

Compound: Cn1cc(C(=O)Nc2ccccc2-c2cc(F)c(F)c(F)c2)c(C(F)F)n1 [Compound Ia, N-(3′,4′,5′-trifluorobiphenyl-2-yl)-3-difluoromethyl-1-methyl-1H-pyrazole-4-carboxamide]
- Soybean grain yield (Trial 1) Pioneer 93M11, increase as % of untreated ([1]; 40 g a.i./ha): (+11.6%)
- Soybean grain yield (Trial 2) Crow C300 42, increase as % of untreated ([1]; 40 g a.i./ha): (+6.5%)
- Soybean grain yield, Mean of two trials, increase as % of untreated ([1]; 40 g a.i./ha): (+8.5%)
- Soybean grain yield (Trial 1) Pioneer 93M11 ([1]; 40 g a.i./ha at BBCH 34/37): 45.5 dt/ha
- Soybean grain yield (Trial 2) Crow C300 42 ([1]; 40 g a.i./ha at BBCH 34/37): 67.1 dt/ha
- Soybean grain yield, Mean of two trials ([1]; 40 g a.i./ha at BBCH 34/37): 56.3 dt/ha
- Soybean grain yield (Trial 1) Pioneer 93M11, increase as % of untreated [1, 4]: ~12%
- Soybean grain yield, Mean of two trials, increase as % of untreated [1, 4]: 8.5%
- TGW ([1]; soybean Crow C300 42 (second trial), 40 g a.i./ha at BBCH 34/37): 177.0 g
- % Green leaf area ([1]; soybean Crow C300 42 (second trial), 40 g a.i./ha at BBCH 34/37, pods at final size): 88.4%
- TGW, increase as % of untreated ([1]; soybean Crow C300 42, 40 g a.i./ha): (+5.7%)
- Observed efficacy (% increase of grain yield vs untreated control) [2]: 0.4%
- Grain yield ([2]; BBCH 51/55): 154.9 dt/ha
- Observed efficacy (% increase of TGW vs untreated control) [3]: 0%
- TGW ([3]; BBCH 70-79): 153 g

Reference: patent publication US20110263423A1, “Plant Health Composition” (BASF SE, priority 2008, published 2011)
